We go through three molecules from US20260014092A1, “EXTRACELLULAR VESICLES FROM MICROALGAE, THEIR USE FOR VACCINES AND FOR IMMUNOMODULATION” (AGS THERAPEUTICS SAS, priority 2023, published 2026).

“And” between values parts separate entries of the source, which are not always exact repeats. Equal entries are not always repeated. In the oligonucleotide strings, read from the 5' end, every base follows the letter of its sugar. An asterisk marks phosphorothioate; unmarked linkages are phosphodiester. Other units and linkages are bracketed, terminal groups are in braces. A string of capitals states the bases alone. d = 2'-deoxy (DNA)

For data set [1], the system named is DSS-induced acute experimental colitis. Briefly: DSS-induced acute colitis (IBD model): Disease Activity Index (DAI). The format is in vivo, C57BL/6 female mice. Also noted: scale not given here. The note with it: i.r. The protocol: In mice, the disease can be induced by the treatment with Dextran Sodium Sulfate (DSS) to create a disease model for the evaluation of experimental therapies. Thus, the treatment of mice suffering from DSS-induced acute experimental colitis is a widely used animal model for the evaluation of therapies against the IBD disease. In our case, acute colitis was induced in mice by DSS 3% in drinking water for eight days. […] All handling of animals was conducted carefully to reduce stress to the minimum. All the experiments were performed in compliance with the guidelines of the French Ministry of Agriculture for experiments with laboratory animals.
Animals were randomized before treatment group's allocation based on body weight. The disease was induced by administration of DSS in drinking water (3%, w/v, MW: 40000, TdB Consultancy AB) in C57BL/6 female mice at 9 weeks of age. Mice were administered with test compounds either at D3 and D6 (M1, M3 and M5 intrarectal), or daily from D3 to D6 (M2 and M4, per os). Experimental groups were as follows: seven animals per group; a total of 49 mice.
Mice were euthanized at D8; samples were harvested to determine the extent of intestinal inflammation using various quantitative and semi quantitative methods including body weight evolution, clinical score (Disease Activity index; DAI, Table 13, below), large intestine measurement, cytokine analysis in colon and/or ileum tissue (TNFα, TGFβ, IFNα, IFNγ, IL-6 and IL-17A) and intestinal and colon histopathology for inflammation analysis, as follows and as summarized in Table 14, below.
In-Life Samples (all groups) • Bodyweight (daily) • Disease Activity Index (DAI) (diarrhea and blood in stool)
The life samples were recovered every day: i. body weight, ii. diarrhea, and iii. blood in stool and used to determine the disease activity index (DAI). The results are summarized in Table 33, for each animal in each group for seven consecutive days.

For data set [2] the following is noted: cited from earlier work.

As for “cobitolimob (DNA GGAACAGTTCGTCCATGGC; listed as DNA, chemistry not given here) [ODNX]”, the “Cumulative score (DAI), Mean” value in data set [1] (D 0, group mean, D 3 and D 6, 100 μg/mouse) turned out to be 0.00; in data set [1] (D 1, group mean, D 3 and D 6, 100 μg/mouse), 0.00; in data set [1] (D 2, group mean, D 3 and D 6, 100 μg/mouse), 0.14; in data set [1] (D 3, group mean, D 3 and D 6, 100 μg/mouse), 0.57; in data set [1] (D 4, group mean, D 3 and D 6, 100 μg/mouse) it was 2.43; in data set [1] (D 5, group mean, D 3 and D 6, 100 μg/mouse), 4.14. The “Cumulative score (DAI), Mean” value in data set [1] (D 6, group mean, D 3 and D 6, 100 μg/mouse) is recorded as 5.71; in data set [1] (D 7, group mean, D 3 and D 6, 100 μg/mouse) it was 7.43. Further, the “Cumulative score (DAI)” value in data set [1] (D 0, individual mice, D 3 and D 6, 100 μg/mouse) was 0; in data set [1] (D 1, individual mice, D 3 and D 6, 100 μg/mouse), 0; in data set [1] (D 2, individual mice, D 3 and D 6, 100 μg/mouse), 0 (6×) and 1; in data set [1] (D 3, individual mice, D 3 and D 6, 100 μg/mouse) it was 0 (5×) and 3 and 1; in data set [1] (D 4, individual mice, D 3 and D 6, 100 μg/mouse), 5 and 3 (2×) and 0 (2×) and 2 and 4; in data set [1] (D 5, individual mice, D 3 and D 6, 100 μg/mouse), 4 (3×) and 5 (2×) and 1 and 6. For the same molecule, the “Cumulative score (DAI)” value is 7 and 6 and 4 and 5 (2×) and 3 and 10 in data set [1] (D 6, individual mice, D 3 and D 6, 100 μg/mouse); 10 (2×) and 7 and 5 and 6 (2×) and 8 in data set [1] (D 7, individual mice, D 3 and D 6, 100 μg/mouse).
For the molecule `CCCCCCCCCCCCCCCCCCCCCC[N+]1=C(/C=C/C=C2/N(CCCCCCCCCCCCCC)c3ccccc3C2(C)C)C(C)(C)c2ccccc21.[I-]` [PKH26], in data set [2], the in vivo half-life entry is recorded as “over 100 days”.
As to “ODN 1585 (DNA dG*dG*dGdGdTdCdAdAdCdGdTdTdGdAdG*dG*dG*dG*dG*dG) [ODNA]”, the “Cumulative score (DAI), Mean” value came to 0.00 in data set [1] (D 0, group mean, D 3 and D 6, 50 μg/mouse); 0.14 in data set [1] (D 1, group mean, D 3 and D 6, 50 μg/mouse); 0.14 in data set [1] (D 2, group mean, D 3 and D 6, 50 μg/mouse); 0.14 in data set [1] (D 3, group mean, D 3 and D 6, 50 μg/mouse); 1.71 in data set [1] (D 4, group mean, D 3 and D 6, 50 μg/mouse); 4.14 in data set [1] (D 5, group mean, D 3 and D 6, 50 μg/mouse). Moreover, the “Cumulative score (DAI), Mean” value in data set [1] (D 6, group mean, D 3 and D 6, 50 μg/mouse) was found to be 6.14; in data set [1] (D 7, group mean, D 3 and D 6, 50 μg/mouse) it was 6.71. Moreover, the “Cumulative score (DAI)” value is 0 in data set [1] (D 0, individual mice, D 3 and D 6, 50 μg/mouse); 0 (6×) and 1 in data set [1] (D 1, individual mice, D 3 and D 6, 50 μg/mouse); 0 (6×) and 1 in data set [1] (D 2, individual mice, D 3 and D 6, 50 μg/mouse); 0 (6×) and 1 in data set [1] (D 3, individual mice, D 3 and D 6, 50 μg/mouse); 2 and 5 and 3 and 1 (2×) and 0 (2×) in data set [1] (D 4, individual mice, D 3 and D 6, 50 μg/mouse); 2 and 8 and 4 (2×) and 3 (2×) and 5 in data set [1] (D 5, individual mice, D 3 and D 6, 50 μg/mouse). Further, the “Cumulative score (DAI)” value in data set [1] (D 6, individual mice, D 3 and D 6, 50 μg/mouse) is 7 (4×) and 6 (2×) and 3; in data set [1] (D 7, individual mice, D 3 and D 6, 50 μg/mouse), 8 (3×) and 7 (2×) and 6 and 3.
